A word on the GI50: it is the concentration giving 50% growth inhibition. Read a high GI50 as less potent growth inhibition.

This is an account of results in patent US20100111867A1, “CARBORANE-PHOSPHONIUM COMPOUNDS AND THEIR USE IN BORON NEUTRON CAPTURE THERAPY AND IMAGING” (THE UNIVERSITY OF SYDNEY, priority 2007, published 2010).

For series [1], the system named is SF268 (human glioblastoma) cell line. The series is described as follows: Preliminary in vitro cytotoxicity screening against SF268 cell line. The series is classed as cell-based. An excerpt:
In contrast to the 1,12-carborane derivative 4, the 1,2- and 1,7-isomers undergo a deboronation reaction in polar solvents to afford the corresponding zwitterionic nido-carborane phosphonium species.

The nature of series [2]: Deboronation of closo-carborane phosphonium salts in polar solvents. The series is classed as physicochemical. Conditions: polar solvents such as DMSO. From the text:
The deboronation reaction was not observed for 4, which contains 1,12-carborane. The inventors hypothesise that 4 is highly resistant to the deboronation reaction because no boron atoms within the cluster are bonded to two adjacent and electronegative carbon atoms. The facile deboronation of closo-1,2-carborane under mild, non-basic conditions is known with alcohols, water and acids (E. Svantesson, J. Pettersson, Å. Olin, K. Markides, S. Sjöberg, Acta Chem. Scand., 1999, 53, 731. V. A. Ol'shevskaya, R. Ayuob, Z. G. Brechko, P. V. Petrovskii, E. G. Kononova, G. L. Levit, V. P. Krasnov, V. N. Charushin, O. N. Chupakhin, V. N. Kalinin, J. Organomet. Chem., 2005, 690, 2761. Y.-J. Lee, J.-D. Lee, J. Ko, S.-H. Kim, S. O. Kang, Chem. Commun., 2003, 1364) and has also been observed when functional groups located α- to the cage are electron-withdrawing and the compounds are exposed to polar solvents containing small amounts of H2O or MeOH (J. J. Schaeck, S. B. Kahl, Inorg. Chem., 1999, 38, 204). In the present case, the deboronation reactions occur in polar solutions such as dry DMF and thus most likely proceed by nucleophilic attack of the iodide counter-ion on the most electrophilic boron atoms in the cage, i.e. B3 (or B6) for 1,2-carborane and B2 (or B3) for 1,7-carborane.

On to `C[P+](c1ccccc1)(c1ccccc1)c1ccccc1` [TPMP, triphenylmethylphosphonium, reference compound], for which growth in series [1] was halved (GI50) at 12.5 µM.

Take “methyldiphenyl(1,2-dicarba-closo-dodecaboranyl)phosphonium iodide [Compound 5]”: in series [2], the “deboronation reaction to nido-carborane zwitterion” value (“deboronation reaction” for short) is “spontaneously deboronate”.

For the compound “methyldiphenyl(1,7-dicarba-closo-dodecaboranyl)phosphonium iodide [Compound 6]”, the “deboronation reaction” value in series [2] is given as “spontaneously deboronate”.

For “methyldiphenyl(1,12-dicarba-closo-dodecaboranyl)phosphonium iodide [Compound 4]”, in series [1], the GI50 was more than 40 µM. The “deboronation reaction” value in series [2] was “not observed”.
